Laboratory results: patent US20030216398A1, “Soluble beta amyloid precursor protein secretion promoters” (priority 2002, published 2003)
Structures can show the parent of a compound that is named as a salt.

melting point	Compound
93 to 96 °C	COc1ccc(C(=O)N2CCC(Nc3ccccc3C(C)C)c3ccccc32)cc1OC.Cl (stereo not drawn)
74 to 76 °C	COc1ccc(C(=O)N2CCC(Nc3ccccc3Cl)c3ccc(Cl)cc32)cc1OC (stereo not drawn) (as salt: hydrochloride) [Example 51, 7-Chloro-N-(2-chlorophenyl)-1-(3,4-dimethoxybenzoyl)-1,2,3,4-tetrahydro-4-quinolinamine Hydrochloride]
180 to 181 °C	COc1ccc(C(=O)N2c3ccccc3[C@H](N(C)c3ccccc3)C[C@@H]2C)cc1OC (racemic) [Example 28, cis-1-(3,4-Dimethoxybenzoyl)-N,2-dimethyl-N-phenyl-1,2,3,4-tetrahydro-4-quinolinamine]
210 °C	C[C@H]1C[C@@H](Nc2ccccc2)c2ccccc2N1C(=O)c1ccncc1 (relative stereo) (hydrate or solvate) [Example 3, cis-1-Isonicotinoyl-2-methyl-N-phenyl-1,2,3,4-tetrahydro-4-quinolinamine]
121 °C	C[C@H]1C[C@@H](Nc2ccccc2)c2ccccc2N1C(=O)c1ccncc1 (relative stereo) [Example 3, cis-1-Isonicotinoyl-2-methyl-N-phenyl-1,2,3,4-tetrahydro-4-quinolinamine]
157 °C	C[C@H]1C[C@@H](Nc2ccccc2)c2ccccc2N1C(=O)c1ccccn1 (relative stereo) [Example 4, cis-2-Methyl-N-phenyl-1-(2-pyridinylcarbonyl)-1,2,3,4-tetrahydro-4-quinolinamine]
175 °C	C[C@H]1C[C@H](Nc2ccccc2)c2ccccc2N1C(=O)c1ccc2c(c1)OCO2 (relative stereo) [Example 7, Trans-1-(1,3-Benzodioxol-5-ylcarbonyl)-2-methyl-N-phenyl-1,2,3,4-tetrahydro-4-quinolinamine]
205 °C	COc1cc(C(=O)N2c3ccccc3[C@@H](Nc3ccccc3)C[C@@H]2C)cc(OC)c1OC (relative stereo) [Example 8, Trans-2-Methyl-N-phenyl-1-(3,4,5-trimethoxybenzoyl)-1,2,3,4-tetrahydro-4-quinolinamine]
184 to 186 °C	COc1ccc(C(=O)N2c3ccccc3[C@@H](Nc3cccc(C)n3)C[C@@H]2C)cc1OC (relative stereo) [Example 13, Trans-1-(3,4-Dimethoxybenzoyl)-2-methyl-N-(6-methyl-2-pyridinyl)-1,2,3,4-tetrahydro-4-quinolinamine]
117 to 118 °C	C[C@H]1C[C@H](Nc2ccccc2)c2ccccc2N1C(=O)c1ccc(Br)o1 (relative stereo) [Example 41, trans-1-(5-Bromo-2-furoyl)-2-methyl-N-phenyl-1,2,3,4-tetrahydro-4-quinolinamine]
193 to 194 °C	C[C@H]1C[C@@H](Nc2ccccc2)c2ccccc2N1C(=O)c1ccc(-c2ccc(Cl)cc2)cc1 (relative stereo) [Example 52, cis-1-[(4′-Chloro[1,1′-biphenyl]-4-yl)carbonyl]-2-methyl-N-phenyl-1,2,3,4-tetrahydro-4-quinolinamine]
175 °C	CC1CC(Nc2ccccc2)c2ccccc2N1C(=O)c1ccc2c(c1)OCO2 (stereo not drawn) [Example 5, cis-1-(1,3-Benzoxol-5-ylcarbonyl)-2-methyl-N-phenyl-1,2,3,4-tetrahydro-4-quinolinamine]
300 °C	COc1cc(C(=O)N2c3ccccc3C(Nc3ccccc3)CC2C)cc(OC)c1OC (stereo not drawn) [Example 6, cis-2-Methyl-N-phenyl-1-(3,4,5-trimethoybenzoyl)-1,2,3,4-tetrahydro-4-quinolinamine]
173 to 175 °C	COc1ccc(C(=O)N2c3ccccc3C(Nc3ccc(Br)cc3)CC2C)cc1OC (stereo not drawn) [Example 12, N-(4-Bromophenyl)-1-(3,4-dimethoxybenzoyl)-2-methyl-1,2,3,4-tetrahydro-4-quinolinamine]
131 °C	COc1ccc(C(=O)N2CCC(Nc3ccc(Cl)cc3)c3ccccc32)cc1OC (stereo not drawn) [Example 14, N-(4-chlorophenyl)-1-(3,4-dimethoxybenzoyl)-1,2,3,4-tetrahydro-4-quinolinamine]
155 to 156 °C	COc1ccc(C(=O)N2CCC(Nc3ccccc3)c3ccccc32)cc1OC (stereo not drawn) [Example 17, 1-(3,4-Dimethoxybenzoyl)-N-phenyl-1,2,3,4-tetrahydro-4-quinolinamine]
143 to 144 °C	COc1ccc(C(=O)N2CCC(N(C)c3ccccc3)c3ccccc32)cc1OC (stereo not drawn) [Example 18, 1-(3,4-Dimethoxybenzoyl)-N-methyl-N-phenyl-1,2,3,4-tetrahydro-4-quinolinamine]
56 to 57 °C	COc1ccc(C(=O)N2CCC(Oc3ccc(Br)cc3)c3ccccc32)cc1OC (stereo not drawn) [Example 19]
111 to 112 °C	COc1ccc(C(=O)N2CCN(Cc3ccccc3)c3ccccc32)cc1OC [Example 20, 1-Benzyl-4-(3,4-dimethoxybenzoyl)-1,2,3,4-tetrahydroquinoxaline]
116 to 118 °C	COc1ccc(C(=O)N2CCC(Nc3ccc4ncccc4c3)c3ccccc32)cc1OC (stereo not drawn) [Example 21, 1-(3,4-Dimethoxybenzoyl)-N-(6-quinolinyl)-1,2,3,4-tetrahydro-4-quinolinamine]

melting point	Compound
156 to 157 °C	COc1ccc(C(=O)N2CCC(Nc3ccccn3)c3ccccc32)cc1OC (stereo not drawn) [Example 22, 1-(3,4-Dimethoxybenzoyl)-N-(2-pyridinyl)-1,2,3,4-tetrahydro-4-quinolinamine]
92 to 93 °C	COc1ccc(C(=O)N2CCC(Nc3ccccc3Cl)c3ccccc32)cc1OC (stereo not drawn) [Example 23, N-(2-Chlorophenyl)-1-(3,4-dimethoxybenzoyl)-1,2,3,4-tetrahydro-4-quinolinamine]
133 to 134 °C	COc1ccc(C(=O)N2CCC(Nc3ccccc3F)c3ccccc32)cc1OC (stereo not drawn) [Example 24, 1-(3,4-Dimethoxybenzoyl)-N-(2-fluorophenyl)-1,2,3,4-tetrahydro-4-quinolinamine]
170 to 171 °C	COc1ccc(C(=O)N2CCC(N(C)c3ccccc3C)c3ccccc32)cc1OC (stereo not drawn) [Example 25, 1-(3,4-Dimethoxybenzoyl)-N-methyl-N-(2-methylphenyl)-1,2,3,4-tetrahydro-4-quinolinamine]
154 to 156 °C	COc1ccc(C(=O)N2CCC(Nc3c(Cl)cccc3Cl)c3ccccc32)cc1OC (stereo not drawn) [Example 26, N-(2,6-Dichlorophenyl)-1-(3,4-dimethoxybenzoyl)-1,2,3,4-tetrahydro-4-quinolinamine]
148 to 150 °C	COc1ccc(C(=O)N2c3ccccc3C(Nc3ccccc3Cl)CC2C)cc1OC (stereo not drawn) [Example 27, N-(2-Chlorophenyl)-1-(3,4-dimethoxybenzoyl)-2-methyl-1,2,3,4-tetrahydro-4-quinolinamine]
135 to 136 °C	COc1ccc(C(=O)N2CCC(Nc3ccc4c(c3)OCO4)c3ccccc32)cc1OC (stereo not drawn) [Example 31, N-(1,3-Benzodioxol-5-yl)-1-(3,4-dimethoxybenzoyl)-1,2,3,4-tetrahydro-4-quinolinamine]
160 °C	COc1ccc(C(=O)N2CCC(Nc3cccc(Cl)c3)c3ccccc32)cc1OC (stereo not drawn) [Example 32, N-(3-Chlorophenyl)-1-(3,4-dimethoxybenzoyl)-1,2,3,4-tetrahydro-4-quinolinamine]
130 °C	COc1ccc(C(=O)N2CCC(Nc3ccc(Br)cc3)c3ccccc32)cc1OC (stereo not drawn) [Example 34, N-(4-Bromophenyl)-1-(3,4-dimethoxybenzoyl)-1,2,3,4-tetrahydro-4-quinolinamine]
146 to 147 °C	COc1ccc(C(=O)N2CCC(N(C)c3ccccc3Cl)c3ccccc32)cc1OC (stereo not drawn) [Example 35, N-(2-Chlorophenyl)-1-(3,4-dimethoxybenzoyl)-N-methyl-1,2,3,4-tetrahydro-4-quinolinamine]
72 to 74 °C	COc1ccc(C(=O)N2CCC(N(C)c3ccc(Cl)cc3)c3ccccc32)cc1OC (stereo not drawn) [Example 36, N-(4-Chlorophenyl)-1-(3,4-dimethoxybenzoyl)-N-methyl-1,2,3,4-tetrahydro-4-quinolinamine]
73 to 74 °C	COc1ccc(C(=O)N2CCC(N(C)c3ccc(Br)cc3)c3ccccc32)cc1OC (stereo not drawn) [Example 37, N-(4-Bromophenyl)-1-(3,4-dimethoxybenzoyl)-N-methyl-1,2,3,4-tetrahydro-4-quinolinamine]
94 to 96 °C	COc1ccc(C(=O)N2CCC(Nc3ccc(C)c(Cl)c3)c3ccccc32)cc1OC (stereo not drawn) [Example 38, N-(3-Chloro-4-methylphenyl)-1-(3,4-dimethoxybenzoyl)-1,2,3,4-tetrahydro-4-quinolinamine]
87 to 89 °C	COc1ccc(C(=O)N2CCC(Nc3ccccc3Cl)c3cc(Cl)ccc32)cc1OC (stereo not drawn) [Example 39, 6-Chloro-N-(2-chlorophenyl)-1-(3,4-dimethoxybenzoyl)-1,2,3,4-tetrahydro-4-quinolinamine]
133 to 134 °C	COc1ccc(C(=O)N2CCN(Cc3ccc(-c4ccccc4)cc3)c3ccccc32)cc1OC [Example 42, 1-([1,1′-Biphenyl]-4-ylmethyl)-4-(3,4-dimethoxybenzoyl)-1,2,3,4-tetrahydroquinoxaline]
165 to 167 °C	COc1ccc(C(=O)N2c3ccccc3C(Nc3ccc(Cl)cc3Cl)CC2C)cc1OC (stereo not drawn) [Example 43, N-(2,4-Dichlorophenyl)-1-(3,4-dimethoxybenzoyl)-2-methyl-1,2,3,4-tetrahydro-4-quinolinamine]
176 to 178 °C	COc1ccc(C(=O)N2CCC(Nc3ccc(Cl)cc3)c3cc(Cl)ccc32)cc1OC (stereo not drawn) [Example 47, 6-Chloro-N-(4-chlorophenyl)-1-(3,4-dimethoxybenzoyl)-1,2,3,4-tetrahydro-4-quinolinamine]
188 to 189 °C	COc1ccc(C(=O)N2CCC(Nc3ccccc3)c3cc(Cl)ccc32)cc1OC (stereo not drawn) [Example 48, 6-Chloro-1-(3,4-dimethoxybenzoyl)-N-phenyl-1,2,3,4-tetrahydro-4-quinolinamine]
125 to 126 °C	COc1ccc(C(=O)N2CCC(Nc3ccccc3)c3ccc(Cl)cc32)cc1OC (stereo not drawn) [Example 50, 7-Chloro-1-(3,4-dimethoxybenzoyl)-N-phenyl-1,2,3,4-tetrahydro-4-quinolinamine]
